How the values were obtained:
Assay in all cases: Combined drug treatment cell viability, CellTiter-Glo assay (Example 2)
Format in all cases: cell-based
Conditions in all cases: 3 days
TMD8 = test system: TMD8
OCI-LY-10 = test system: OCI-LY-10
OCI-LY-3 = test system: OCI-LY-3
HBL-1 = test system: HBL-1
U2932 = test system: U2932
SU-DHL-2 = test system: SU-DHL-2
[1] = ibrutinib 0 nM, JAK3 10 μM / MCL-1 3 μM alone
[2] = ibrutinib 0.0512 nM, JAK3 10 μM / MCL-1 3 μM / medium alone
[3] = ibrutinib 0.256 nM, JAK3 10 μM / MCL-1 3 μM / medium alone
[4] = ibrutinib 1.28 nM, JAK3 10 μM / MCL-1 3 μM / medium alone
[5] = ibrutinib 6.4 nM, JAK3 10 μM / MCL-1 3 μM / medium alone
[6] = ibrutinib 32 nM, JAK3 10 μM / MCL-1 3 μM / medium alone
[7] = ibrutinib 160 nM, JAK3 10 μM / MCL-1 3 μM / medium alone
[8] = ibrutinib 800 nM, JAK3 10 μM / MCL-1 3 μM / medium alone
[9] = ibrutinib 20000 nM, JAK3 10 μM / MCL-1 3 μM / medium alone
[10] = ibrutinib 40000 nM, JAK3 10 μM / MCL-1 3 μM / medium alone

Cc1csc(=NC2CCCCC2)n1/N=C/c1ccc(O)c(O)c1O [MIM1]
luminescence (CellTiter-Glo) (TMD8; [1]): 36019.47
luminescence (CellTiter-Glo) (TMD8; [2]): 19059.39
luminescence (CellTiter-Glo) (TMD8; [3]): 18570.62
luminescence (CellTiter-Glo) (TMD8; [4]): 18591.98
luminescence (CellTiter-Glo) (TMD8; [5]): 19112.81
luminescence (CellTiter-Glo) (TMD8; [6]): 19032.68
luminescence (CellTiter-Glo) (TMD8; [7]): 19452.01
luminescence (CellTiter-Glo) (TMD8; [8]): 18063.15
luminescence (CellTiter-Glo) (TMD8; [9]): 4767.52
luminescence (CellTiter-Glo) (TMD8; [10]): 15624.64
luminescence (CellTiter-Glo) (OCI-LY-10; [1]): 43143.62
luminescence (CellTiter-Glo) (OCI-LY-10; [2]): 33524.45
luminescence (CellTiter-Glo) (OCI-LY-10; [3]): 26007.29
luminescence (CellTiter-Glo) (OCI-LY-10; [4]): 18751.19
luminescence (CellTiter-Glo) (OCI-LY-10; [5]): 11024.10
luminescence (CellTiter-Glo) (OCI-LY-10; [6]): 8025.84
luminescence (CellTiter-Glo) (OCI-LY-10; [7]): 8938.24
luminescence (CellTiter-Glo) (OCI-LY-10; [8]): 9390.40
luminescence (CellTiter-Glo) (OCI-LY-10; [9]): 9228.91
luminescence (CellTiter-Glo) (OCI-LY-10; [10]): 10886.83
luminescence (CellTiter-Glo) (OCI-LY-3; [1]): 80237.62
luminescence (CellTiter-Glo) (OCI-LY-3; [2]): 76311.68
luminescence (CellTiter-Glo) (OCI-LY-3; [3]): 80052.59
luminescence (CellTiter-Glo) (OCI-LY-3; [4]): 80436.06
luminescence (CellTiter-Glo) (OCI-LY-3; [5]): 73884.80
luminescence (CellTiter-Glo) (OCI-LY-3; [6]): 75378.47
luminescence (CellTiter-Glo) (OCI-LY-3; [7]): 65609.22
luminescence (CellTiter-Glo) (OCI-LY-3; [8]): 74844.82
luminescence (CellTiter-Glo) (OCI-LY-3; [9]): 75182.71
luminescence (CellTiter-Glo) (OCI-LY-3; [10]): 74901.14
luminescence (CellTiter-Glo) (HBL-1; [1]): 51241.07
luminescence (CellTiter-Glo) (HBL-1; [2]): 27898.48
luminescence (CellTiter-Glo) (HBL-1; [3]): 29488.62
luminescence (CellTiter-Glo) (HBL-1; [4]): 35637.34
luminescence (CellTiter-Glo) (HBL-1; [5]): 30743.57
luminescence (CellTiter-Glo) (HBL-1; [6]): 31548.03
luminescence (CellTiter-Glo) (HBL-1; [7]): 32832.47
luminescence (CellTiter-Glo) (HBL-1; [8]): 28815.56
luminescence (CellTiter-Glo) (HBL-1; [9]): 7366.12
luminescence (CellTiter-Glo) (HBL-1; [10]): 26941.18
luminescence (CellTiter-Glo) (U2932; [1]): 59686.00
luminescence (CellTiter-Glo) (U2932; [2]): 55451.36
luminescence (CellTiter-Glo) (U2932; [3]): 53088.09
luminescence (CellTiter-Glo) (U2932; [4]): 54122.68
luminescence (CellTiter-Glo) (U2932; [5]): 53424.93
luminescence (CellTiter-Glo) (U2932; [6]): 51898.43
luminescence (CellTiter-Glo) (U2932; [7]): 50938.68
luminescence (CellTiter-Glo) (U2932; [8]): 51419.90
luminescence (CellTiter-Glo) (U2932; [9]): 17553.45
luminescence (CellTiter-Glo) (U2932; [10]): 49251.78
luminescence (CellTiter-Glo) (SU-DHL-2; [1]): 59686.0
luminescence (CellTiter-Glo) (SU-DHL-2; [2]): 55451.4
luminescence (CellTiter-Glo) (SU-DHL-2; [3]): 53088.1
luminescence (CellTiter-Glo) (SU-DHL-2; [4]): 54122.7
luminescence (CellTiter-Glo) (SU-DHL-2; [5]): 53424.9
luminescence (CellTiter-Glo) (SU-DHL-2; [6]): 51898.4
luminescence (CellTiter-Glo) (SU-DHL-2; [7]): 50938.7
luminescence (CellTiter-Glo) (SU-DHL-2; [8]): 51419.9
luminescence (CellTiter-Glo) (SU-DHL-2; [9]): 17553.4
luminescence (CellTiter-Glo) (SU-DHL-2; [10]): 49251.8

— patent US9730938B2, “Bruton's tyrosine kinase inhibitor combinations and uses thereof” (Pharmacyclics LLC, priority 2014, dated 2017)
